In publication PMC12607499, “Prokaryotic Expression and Binding Characteristics of Odor-Binding Protein GqinOBP10 in Gynaephora qinghaiensis” (International Journal of Molecular Sciences, 2025):

Target: T1, GqinOBP10
T1 construct: gene OBP10; full length 134 residues (405 bp); signal peptide removed; vector pCZN1, E. coli BL21 (DE3); His tag cut off with enterokinase; about 15 kDa
Assay: fluorescence competitive binding with 1-NPN probe
Set-up: species or system Gynaephora qinghaiensis
Conditions: 2 µM protein, 50 mM Tris-HCl pH 7.4; displacement of 1-NPN
Excerpt: fluorescence competitive binding with 1-NPN probe on GqinOBP10

Structure (SMILES) | IC50 | Ki
OCCC(O)CO (stereo not shown) [1,2,4-butanetriol] | 11.7 µM | 11.6 µM
O=C1CCC(=O)CC1 [1,4-Cyclohexanedione] | 13.1 µM | 13 µM
NCC(O)c1ccccc1 (stereo not shown) [2-Amino-1-phenylethanol] | 4.51 µM | 4.48 µM
N#CC[C@H](N)C(=O)O [β-cyano-L-alanine] | 12.3 µM | 12.2 µM

Continued, values first:

IC50 | Ki | Structure (SMILES)
18.7 µM | 18.6 µM | NC1(C(=O)O)CC1 [1-Aminocyclopropane-1-carboxylic acid]
12 µM | 11.9 µM | OC1CCc2ccccc21 (stereo not shown) [1-Indanol]
6 µM | 5.96 µM | CCCCCCCC/C=C\CCCCCCCC(=O)OC(CO)CO [2-Oleoylglycerol]
15 µM | 14.9 µM | CC(CN)C(=O)O (stereo not shown) [3-Aminoisobutanoic acid]
